# Measured values: US12226405B2, “Compounds and compositions for inhibiting the activity of HIF2-alpha and their methods of use” (Novartis AG, priority 2020, dated 2025)
# Legend:
# [1] = system: 786-O subcutaneous xenografts; test: In vivo 786-O tumor growth model; details: female nude mice, 30 mg/kg p.o. qd, 21 days
# Protocol: Female nude mice bearing 786-O subcutaneous xenografts were treated with Example 31 at 30 mg/kg p.o. qd or vehicle control. Treatments started 34 days post tumor inoculation and lasted 21 days. Values are provided as mean±SEM with a sample size of n=6 mice per group. The initial tumor volume at day 0 was approximately 260 mm^3.
# Experiments were performed in female nude Crl:NU(NCr)-Foxnlnu-Homozygous mice (Charles River, Germany). Animals were 6-9 weeks of age at time of application of the compound. Animals were housed under Optimized Hygienic Conditions in Makrolon type III cages (max. 5 animals per cage) with free access to food and water. […]
# Cell line and cell culture: 786-O and SKRC-01 cells were grown in 500 ml RPMI1640 Medium+5 ml L-Glutamine+50 ml FCS+5 ml Sodium Pyruvate+5 ml HEPES and incubated at 37° C. in a 5% CO2 humidified atmosphere. Cells were harvested with trypsin-EDTA, re-suspended in culture medium (with additives) and counted with a Casy® system. […]
# Evaluation of antitumor activity: Tumor volumes were measured with calipers and determined according to the formula: length×diameter^2×π/6. In addition to presenting changes of tumor volumes over the course of treatments, antitumor activity is expressed as T/C % (mean change of tumor volume of treated animals/mean change of tumor volume of control animals)×100. […]
# [2] = target: HIF2α PAS-B domain (236-350, biotinylated on the N-terminus) (Homo sapiens (Human), UniProt Q99814); test: In vitro SPA with the PAS-B domain of HIF2α (competition binding with radio-ligand); details: versus corresponding enantiomer
# HIF2α PAS-B domain (236-350, biotinylated on the N-terminus), sequence (Q99814 236-350): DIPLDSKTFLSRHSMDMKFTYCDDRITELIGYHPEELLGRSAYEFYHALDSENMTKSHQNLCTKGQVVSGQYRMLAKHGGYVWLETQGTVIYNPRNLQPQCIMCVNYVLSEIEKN
# Protocol: The assay buffer contained 50 mM Tris-HCl pH7 (Sigma), 20 mM NaCl (Fluka), 0.02% BSA (Sigma), 0.005% Triton X-100 (Pierce) and 1 mM DTT (Fluka). After a 30 min incubation period, 5 μL Streptavidin PVT SPA Beads (Perkin Elmer) at 1.2 mg/mL, diluted in the buffer, were added.
Structure (SMILES),anti-tumor activity [1],"IC50 in the Hif2α SPA assay, fold lower than for the corresponding (R)-enantiomer [2]"
"FC(F)OC1=CC(C(F)(F)F)=CN2C[C@@]3(CCC(F)(F)c4c3ccnc4Cl)N=C12 [Example 31, (S)-1′-chloro-8-(difluoromethoxy)-8′,8′-difluoro-6-(trifluoromethyl)-7′,8′-dihydro-3H,6′H-spiro[imidazo[1,2-a]pyridine-2,5′-isoquinoline]]",demonstrated,
"FC(F)OC1=CC(C(F)(F)F)=CN2C[C@@]3(CCOc4cc(C(F)(F)F)ccc43)N=C12 [Example 44, (S)-8′-(difluoromethoxy)-6′,7-bis(trifluoromethyl)-3′H-spiro[chroman-4,2′-imidazo[1,2-a]pyridine]]",,greater than 700 fold
